{"source": "patent US20160017206A1", "about": "“METHODS FOR IMMEDIATE SOURING CONTROL IN GASES OR FLUIDS PRODUCED FROM SULFIDOGENIC RESERVOIR SYSTEMS” (THE REGENTS OF THE UNIVERSITY OF CALIFORNIA, priority 2013, published 2016)", "type_in_all_cases": "cell-based", "key": {"[1]": {"tested_on": "Desulfovibrio vulgaris", "assay": "Inhibition of sulfidogenesis (sulfate reduction to sulfide) by D. vulgaris cultures", "procedure": "Twelve tubes of basal anaerobic medium containing 15 mM lactate and 15 mM sulfate were inoculated with an active culture of D. vulgaris and incubated for 6 hours at 30° C., until a visible increase in optical density was observed. After six hours, the tubes were further inoculated with A. suillum and 15 mM chlorate prior to incubation overnight at 30° C., as outlined in Table 2."}, "[2]": {"tested_on": "marine sediment slurry microcosms", "assay": "Sulfide inhibition in marine sediment slurry microcosms", "details": "chlorate added with Dechloromarinus strain NSS, incubation over 250 hours", "description": "In the absence of chlorate and Dechloromarinus strain NSS sulfide is readily produced."}, "[3]": {"tested_on": "A. suillum", "assay": "Fe(II) oxidation by A. suillum in anoxic culture with nitrate as electron acceptor", "details": "10 mM Fe(II) as FeCl2, 10 mM acetate as cosubstrate, within 7 days", "procedure": "A. suillum readily oxidized (10 mM) Fe(II) in the form of FeCl2 with nitrate as the electron acceptor under strict anaerobic conditions (FIG. 8). With 10 mM acetate as a cosubstrate, more than 70% of the added iron was oxidized within 7 days. No Fe(II) was oxidized in the absence of cells or if the nitrate was omitted (data not shown). Fe(II) oxidation was initiated after complete mineralization of acetate to CO2, and growth was not associated with this metabolism.\nWhen acetate was added as an additional carbon and energy source, cell density increased concomitant with acetate oxidation. Fe(II) oxidation occurred after acetate had been depleted and the culture had reached stationary phase (FIG. 8)."}}}
{"smiles": "[O-][Cl+2]([O-])O", "note": "[chlorate]", "values": [{"measurement": "sulfide production by D. vulgaris relative to control cells incubated without chlorate", "setting": "[1]; 15 mM chlorate alone, 24 hours, lactate as electron donor", "result": 49, "unit": "%"}, {"measurement": "sulfide production by D. vulgaris relative to control cells incubated in the absence of A. suillum and chlorate", "setting": "[1]; 15 mM chlorate together with A. suillum, 24-hour incubation", "result": 17, "unit": "%"}, {"measurement": "antimicrobial activity against D. vulgaris", "setting": "[1]; relatively low concentrations (15 mM)", "result": "has antimicrobial activity against D. vulgaris"}, {"measurement": "time course of sulfidogenesis by D. vulgaris (FIG. 14)", "setting": "[1]; treated with A. suillum (PS) and chlorate at 48 hours, relative to untreated control", "result": "immediate inhibition of sulfide production and removal of sulfide from the medium"}, {"measurement": "sulfide production in marine sediment slurry microcosms (FIG. 12)", "setting": "[2]", "result": "sulfide inhibition"}]}
{"smiles": "[Cl][Fe][Cl]", "note": "[FeCl2, Ferrous chloride]", "values": [{"measurement": "added iron oxidized", "setting": "[3]", "result": "more than 70%"}]}
